The values below come from paper PMC9878345 (Frontiers in Chemistry, 2023).

The target of the assay is SARS-CoV-2 PLpro (Severe acute respiratory syndrome coronavirus 2, UniProt P0DTD1). The assay is described as follows: biochemical. Format: biochemical. The following applies: concentration not stated.
`C/C=C1/[C@H](O[C@@H]2O[C@H](CO)[C@@H](O)[C@H](O)[C@H]2O)OC=C(C(=O)OC)[C@H]1CC(=O)OCCc1ccc(O)c(O)c1` [oleuropein]: the “inhibition activity in SARS-CoV-2 PLpro enzymatic activity” value is given as “more than 50%”. As for `O=c1c2cc(O)c(O)cc2oc2cc(O)c([C@@H]3O[C@H](CO)[C@@H](O)[C@H](O)[C@H]3O)c(O)c12` [mangiferin, 2-β-D-glucopyranosyl-1,3,6,7-tetrahydroxy-9H-xanthan-9-one], the entry is “more than 50%”. For the compound `C[C@@H]1O[C@@H](OC[C@H]2O[C@@H](Oc3c(-c4ccc(O)c(O)c4)oc4cc(O)cc(O)c4c3=O)[C@H](O)[C@@H](O)[C@@H]2O)[C@H](O)[C@H](O)[C@H]1O` [rutin], the “inhibition activity in SARS-CoV-2 PLpro enzymatic activity” value is “more than 50%”.
